Measured values reported in patent US20130030001A1 (priority 2008, published 2013).
Counter-ions that a name gives are not always drawn.

System: not listed separately
Experiment: in vitro
Settings: human, plasma, pH 7.4

SMILES | fraction unbound
O=C(C[N+]12CCC(CC1)[C@@H](OC(=O)C1(c3ccccc3)CCCCCC1)C2)Nc1ccccc1 [Example 21, (R)-1-Phenylcarbamoylmethyl-3-(1-phenyl-cycloheptanecarbonyloxy)-1-azonia-bicyclo[2.2.2]octane bromide] | 0.006
Cc1cc(NC(=O)C[N+]23CCC(CC2)[C@@H](OC(=O)C2(c4ccccc4)CCCCCC2)C3)ccn1 [Example 20, (R)-1-[(2-Methyl-pyridin-4-ylcarbamoyl)-methyl]-3-(1-phenyl-cycloheptanecarbonyloxy)-1-azonia-bicyclo[2.2.2]octane chloride] | 0.018
O=C(C[N+]12CCC(CC1)[C@@H](OC(=O)C1(c3cccc(F)c3)CCCCCC1)C2)Nc1ccon1 [Example 13, (R)-3-[1-(3-Fluoro-phenyl)-cycloheptanecarbonyloxy]-1-(isoxazol-3-ylcarbamoylmethyl)-1-azonia-bicyclo[2.2.2]octane bromide] | 0.068
O=C(C[N+]12CCC(CC1)[C@@H](OC(=O)C1(c3ccccc3)CCCCCC1)C2)Nc1ccc(F)cn1 [Example 17, (R)-1-[(5-Fluoro-pyridin-2-ylcarbamoyl)-methyl]-3-(1-phenyl-cycloheptanecarbonyloxy)-1-azonia-bicyclo[2.2.2]octane chloride] | 0.024
O=C(C[N+]12CCC(CC1)[C@@H](OC(=O)C1(c3ccccc3)CCCCCC1)C2)Nc1ccccn1 [Example 15, (R)-3-(1-Phenyl-cycloheptanecarbonyloxy)-1-(pyridin-2-ylcarbamoylmethyl)-1-azonia-bicyclo[2.2.2]octane bromide] | 0.039
O=C(C[N+]12CCC(CC1)[C@@H](OC(=O)C1(c3cccs3)CCCCCC1)C2)Nc1cnccn1 [Example 11, (R)-1-(Pyrazin-2-ylcarbamoylmethyl)-3-(1-thiophen-2-yl-cycloheptanecarbonyloxy)-1-azonia-bicyclo[2.2.2]octane bromide] | 0.048

Target: T1, human muscarinic acetylcholine M3 receptor (Homo sapiens, UniProt P20309)
T1 construct: expressed in transfected cells; host or cells: CHO-K1 (Chinese Hamster Ovary) cell membranes
Experiment: biochemical
Type: binding
Settings: M3 binding IC50

T1 sequence (P20309 whole entry): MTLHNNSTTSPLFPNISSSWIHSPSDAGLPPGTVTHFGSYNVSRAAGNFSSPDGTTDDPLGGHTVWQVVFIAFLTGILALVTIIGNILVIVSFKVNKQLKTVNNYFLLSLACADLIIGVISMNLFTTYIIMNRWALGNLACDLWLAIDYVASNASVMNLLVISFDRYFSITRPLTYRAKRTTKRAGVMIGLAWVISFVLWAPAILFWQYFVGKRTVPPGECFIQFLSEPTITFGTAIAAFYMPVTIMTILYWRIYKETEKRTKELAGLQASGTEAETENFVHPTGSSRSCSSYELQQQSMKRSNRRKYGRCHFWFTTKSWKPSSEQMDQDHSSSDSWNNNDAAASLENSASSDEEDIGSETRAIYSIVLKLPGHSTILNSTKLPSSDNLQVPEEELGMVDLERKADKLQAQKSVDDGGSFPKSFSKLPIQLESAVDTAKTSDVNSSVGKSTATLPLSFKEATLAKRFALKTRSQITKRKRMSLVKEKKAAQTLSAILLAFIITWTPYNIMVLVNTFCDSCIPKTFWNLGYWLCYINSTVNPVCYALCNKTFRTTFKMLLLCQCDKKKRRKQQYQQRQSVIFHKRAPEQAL

SMILES | IC50 [nM]
O=C(C[N+]12CCC(CC1)[C@@H](OC(=O)C1(c3ccccc3)CCCCCC1)C2)Nc1ccccc1 [Example 21, (R)-1-Phenylcarbamoylmethyl-3-(1-phenyl-cycloheptanecarbonyloxy)-1-azonia-bicyclo[2.2.2]octane bromide] | < 2
N#Cc1ccc(NC(=O)C[N+]23CCC(CC2)[C@@H](OC(=O)C2(c4ccccc4)CCCCCC2)C3)nc1 [Example 51, (R)-1-[(5-Cyano-pyridin-2-ylcarbamoyl)-methyl]-3-(1-phenyl-cycloheptanecarbonyloxy)-1-azonia-bicyclo[2.2.2]octane chloride] | 2 to 10
O=C(NCCC[N+]12CCC(CC1)[C@@H](OC(=O)C1(c3ccccc3)CCCCCC1)C2)c1ccccn1 [Example 57, (R)-3-(1-Phenyl-cycloheptanecarbonyloxy)-1-{3-[(pyridine-2-carbonyl)-amino]-propyl}-1-azonia-bicyclo[2.2.2]octane bromide] | 2 to 10
O=C(C[N+]12CCC(CC1)[C@@H](OC(=O)C1(c3ccccc3)CCCCCC1)C2)Nc1ncco1 [Example 48, (R)-1-(Oxazol-2-ylcarbamoylmethyl)-3-(1-phenyl-cycloheptanecarbonyloxy)-1-azonia-bicyclo[2.2.2]octane bromide] | 2 to 10
O=C(C[N+]12CCC(CC1)[C@@H](OC(=O)C1(c3ccccc3)CCCCCC1)C2)Nc1ccc(Cl)cn1 [Example 45, (R)-1-[(5-Chloro-pyridin-2-ylcarbamoyl)-methyl]-3-(1-phenyl-cycloheptanecarbonyloxy)-1-azonia-bicyclo[2.2.2]octane chloride] | < 2
O=C(O[C@H]1C[N+]2(CCOc3ccc(F)cc3)CCC1CC2)C1(c2ccccc2)CCCCCC1 [Example 26, (R)-1-[2-(4-Fluoro-phenoxy)-ethyl]-3-(1-phenyl-cycloheptanecarbonyloxy)-1-azonia-bicyclo[2.2.2]octane formate] | < 2
O=C(C[N+]12CCC(CC1)[C@@H](OC(=O)C1(c3ccccc3)CCCCCC1)C2)Nc1cncnc1 [Example 52, (R)-3-(1-Phenyl-cycloheptanecarbonyloxy)-1-(pyrimidin-5-ylcarbamoylmethyl)-1-azonia-bicyclo[2.2.2]octane chloride] | < 2
O=C(NCC[N+]12CCC(CC1)[C@@H](OC(=O)C1(c3ccccc3)CCCCCC1)C2)c1cnccn1 [Example 55, (R)-3-(1-Phenyl-cycloheptanecarbonyloxy)-1-{2-[(pyrazine-2-carbonyl)-amino]-ethyl}-1-azonia-bicyclo[2.2.2]octane bromide] | 2 to 10
O=C(O[C@@H]1C[N+]2(CCCOc3ccccc3)CCC1CC2)C1(c2ccccc2)CCCCCC1 [Example 33, (S)-1-(3-Phenoxy-propyl)-3-(1-phenyl-cycloheptanecarbonyloxy)-1-azonia-bicyclo[2.2.2]octane formate] | 2 to 10
O=C(O[C@H]1C[N+]2(CCc3cnccn3)CCC1CC2)C1(c2ccccc2)CCCCCC1 [Example 32, (R)-3-(1-Phenyl-cycloheptanecarbonyloxy)-1-(2-pyrazin-2-yl-ethyl)-1-azonia-bicyclo[2.2.2]octane bromide] | 2 to 10
O=C(O[C@H]1C[N+]2(CCOCCc3ccccc3)CCC1CC2)C1(c2ccccc2)CCCCCC1 [Example 37, (R)-1-(2-Phenethyloxy-ethyl)-3-(1-phenyl-cycloheptanecarbonyloxy)-1-azonia-bicyclo[2.2.2]octane bromide] | < 2
Cc1cc(NC(=O)C[N+]23CCC(CC2)[C@@H](OC(=O)C2(c4cccs4)CCCCCC2)C3)on1 [Example 7, (R)-1-[(3-Methyl-isoxazol-5-ylcarbamoyl)-methyl]-3-(1-thiophen-2-yl-cycloheptanecarbonyloxy)-1-azonia-bicyclo[2.2.2]octane bromide] | 2 to 10
N#Cc1ccc(OCCC[N+]23CCC(CC2)[C@@H](OC(=O)C2(c4ccccc4)CCCCCC2)C3)cc1 [Example 40, (R)-1-[3-(4-Cyano-phenoxy)-propyl]-3-(1-phenyl-cycloheptanecarbonyloxy)-1-azonia-bicyclo[2.2.2]octane bromide] | < 2
O=C(NCC[N+]12CCC(CC1)[C@@H](OC(=O)C1(c3ccccc3)CCCCCC1)C2)c1ccccn1 [Example 60, (R)-3-(1-Phenyl-cycloheptanecarbonyloxy)-1-{2-[(pyridine-2-carbonyl)-amino]-ethyl}-1-azonia-bicyclo[2.2.2]octane bromide] | < 2
CN(C(=O)C[N+]12CCC(CC1)[C@@H](OC(=O)C1(c3ccccc3)CCCCCC1)C2)c1ccccc1 [Example 39, (R)-1-[(Methyl-phenyl-carbamoyl)-methyl]-3-(1-phenyl-cycloheptanecarbonyloxy)-1-azonia-bicyclo[2.2.2]octane formate] | 2 to 10
Cc1ccnc(NC(=O)C[N+]23CCC(CC2)[C@@H](OC(=O)C2(c4ccccc4)CCCCCC2)C3)c1 [Example 44, (R)-1-[(4-Methyl-pyridin-2-ylcarbamoyl)-methyl]-3-(1-phenyl-cycloheptanecarbonyloxy)-1-azonia-bicyclo[2.2.2]octane chloride] | 2 to 10
O=C(O[C@H]1C[N+]2(CCCc3ccncc3)CCC1CC2)C1(c2ccccc2)CCCCCC1 [Example 61, (R)-3-(1-Phenyl-cycloheptanecarbonyloxy)-1-(3-pyridin-4-yl-propyl)-1-azonia-bicyclo[2.2.2]octane bromide] | < 2
O=C(C[N+]12CCC(CC1)[C@@H](OC(=O)C1(c3cccs3)CCCCCC1)C2)Nc1cnccn1 [Example 11, (R)-1-(Pyrazin-2-ylcarbamoylmethyl)-3-(1-thiophen-2-yl-cycloheptanecarbonyloxy)-1-azonia-bicyclo[2.2.2]octane bromide] | < 2
O=C(C[N+]12CCC(CC1)[C@@H](OC(=O)C1(c3ccccc3)CCCCCC1)C2)Nc1c(F)cccc1F [Example 38, (R)-1-[(2,6-Difluoro-phenylcarbamoyl)-methyl]-3-(1-phenyl-cycloheptanecarbonyloxy)-1-azonia-bicyclo[2.2.2]octane bromide] | < 2
O=C(C[N+]12CCC(CC1)[C@@H](OC(=O)C1(c3ccccc3)CCCCCC1)C2)Nc1ccncc1F [Example 54, (R)-1-[(3-Fluoro-pyridin-4-ylcarbamoyl)-methyl]-3-(1-phenyl-cycloheptanecarbonyloxy)-1-azonia-bicyclo[2.2.2]octane chloride] | < 2
O=C(C[N+]12CCC(CC1)[C@@H](OC(=O)C1(c3cccs3)CCCCCC1)C2)Nc1cccnn1 [Example 5, (R)-1-(Pyridazin-3-ylcarbamoylmethyl)-3-(1-thiophen-2-yl-cycloheptanecarbonyloxy)-1-azonia-bicyclo[2.2.2]octane bromide] | < 2
Cc1cncc(NC(=O)C[N+]23CCC(CC2)[C@@H](OC(=O)C2(c4ccccc4)CCCCCC2)C3)n1 [Example 2, (R)-1-[(6-Methyl-pyrazin-2-ylcarbamoyl)-methyl]-3-(1-phenyl-cycloheptanecarbonyloxy)-1-azonia-bicyclo[2.2.2]octane bromide] | < 2

Same assay, conditions: pIC50

SMILES | IC50 [nM]
O=C(C[N+]12CCC(CC1)[C@@H](OC(=O)C1(c3cccc(F)c3)CCCCCC1)C2)Nc1ccon1 [Example 13, (R)-3-[1-(3-Fluoro-phenyl)-cycloheptanecarbonyloxy]-1-(isoxazol-3-ylcarbamoylmethyl)-1-azonia-bicyclo[2.2.2]octane bromide] | 0.0794
O=C(C[N+]12CCC(CC1)[C@@H](OC(=O)C1(c3cccs3)CCCCCC1)C2)Nc1cccnn1 [Example 5, (R)-1-(Pyridazin-3-ylcarbamoylmethyl)-3-(1-thiophen-2-yl-cycloheptanecarbonyloxy)-1-azonia-bicyclo[2.2.2]octane bromide] | 0.398
